The values below come from patent US11458123B2 (Arvinas, Inc., priority 2016, dated 2022).

The first assay concerns tau protein. Briefly: Tau protein in vitro degradation assay (Western blot, Tau-13 antibody). Format: cell-based, human. Particulars: SK-N-SH cells; 72 hours of incubation; tested at 300 nM, 100 nM, 33 nM and 11 nM; Western blot, Tau-13 antibody. Summed up: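 Tau degradation read by Tau-13 Western blot (detects all human tau forms) of SDS-PAGE-resolved lysates from SK-N-SH cells. Cells were plated at least 18 h before 72 h exposure to PROTACs at either 1000/300/100 nM or 300/100/33/11 nM.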
Background: Immunoblotting shows a protein as a band on a membrane.
`Cn1c2ccncc2c2ccc(-c3ccc(OCCCCOCCCCOC4CC5(C4)CN(c4ccc6c(c4)C(=O)N(C4CCC(=O)NC4=O)C6=O)C5)nc3)cc21` (centres unmarked) [Compound 100, 2-(2,6-dioxopiperidin-3-yl)-5-(6-(4-(4-((5-(5-methyl-5H-pyrido[4,3-b]indol-7-yl)pyridin-2-yl)oxy)butoxy)butoxy)-2-azaspiro[3.3]heptan-2-yl)isoindoline-1,3-dione]: the “Degradation activity* (highest amount of degradation observed at any dosage; tau protein remaining)” value is given as “C (>80% tau protein remaining after 72 hours of incubation with the test compound)”.

Take `Cn1c2ccncc2c2ccc(-c3ccc(N4CC(OCCCCCOCCCCCOc5ccc6c(c5)C(=O)N(C5CCC(=O)NC5=O)C6=O)C4)nc3)cc21` (centres unmarked) [Compound 115, 2-(2,6-dioxopiperidin-3-yl)-5-((5-((5-((1-(5-(5-methyl-5H-pyrido[4,3-b]indol-7-yl)pyridin-2-yl)azetidin-3-yl)oxy)pentyl)oxy)pentyl)oxy)isoindoline-1,3-dione]: the “Degradation activity* (highest amount of degradation observed at any dosage; tau protein remaining)” value is on record as “C (>80% tau protein remaining after 72 hours of incubation with the test compound)”.

For `O=C1CCC(N2C(=O)c3ccc(OCCCc4ccc(O[C@H]5C[C@H](Oc6ccc(-c7ccc8c(c7)[nH]c7ccncc78)cn6)C5)cn4)cc3C2=O)C(=O)N1` (some centres unmarked) [Compound 77, 5-(3-(5-((1r,3r)-3-((5-(5H-pyrido[4,3-b]indol-7-yl)pyridin-2-yl)oxy)cyclobutoxy)pyridin-2-yl)propoxy)-2-(2,6-dioxopiperidin-3-yl)isoindoline-1,3-dione], the “Degradation activity* (highest amount of degradation observed at any dosage; tau protein remaining)” value is recorded as “C (>80% tau protein remaining after 72 hours of incubation with the test compound)”.

Regarding `Cn1c2ccncc2c2ccc(-c3ccc(O[C@H]4C[C@H](Oc5ccc(C#CCCCCOc6ccc7c(c6)C(=O)N(C6CCC(=O)NC6=O)C7=O)cc5)C4)nc3)cc21` (some centres unmarked) [Compound 124, 2-(2,6-dioxopiperidin-3-yl)-5-((6-(4-((1r,3r)-3-((5-(5-methyl-5H-pyrido[4,3-b]indol-7-yl)pyridin-2-yl)oxy)cyclobutoxy)phenyl)hex-5-yn-1-yl)oxy)isoindoline-1,3-dione], the “Degradation activity* (highest amount of degradation observed at any dosage; tau protein remaining)” value is given as “C (>80% tau protein remaining after 72 hours of incubation with the test compound)”.

For `O=C1CCC(N2C(=O)c3ccc(N4CC(OCC#Cc5ccc(O[C@H]6C[C@H](Oc7ccc(-c8ccc9c(c8)[nH]c8ccncc89)cn7)C6)cn5)C4)cc3C2=O)C(=O)N1` (some centres unmarked) [Compound 194, 5-(3-((3-(5-((1r,3r)-3-((5-(5H-pyrido[4,3-b]indol-7-yl)pyridin-2-yl)oxy)cyclobutoxy)pyridin-2-yl)prop-2-yn-1-yl)oxy)azetidin-1-yl)-2-(2,6-dioxopiperidin-3-yl)isoindoline-1,3-dione], the “Degradation activity (tau protein remaining; highest amount of degradation observed at any dosage)” value is “C (>80% tau protein remaining after 72 hours of incubation with the test compound)”.

In the case of `O=C1CCC(N2Cc3cc(OCC#Cc4ccc(O[C@H]5C[C@H](Oc6ccc(-c7ccc8c(c7)[nH]c7ccncc78)cn6)C5)cn4)ccc3C2=O)C(=O)N1` (some centres unmarked) [Compound 180, 3-(5-((3-(5-((1r,3r)-3-((5-(5H-pyrido[4,3-b]indol-7-yl)pyridin-2-yl)oxy)cyclobutoxy)pyridin-2-yl)prop-2-yn-1-yl)oxy)-1-oxoisoindolin-2-yl)piperidine-2,6-dione], the “Degradation activity (tau protein remaining; highest amount of degradation observed at any dosage)” value is “A (≤50% tau protein remaining after 72 hours of incubation with the test compound)”.

Consider `Cn1c2ccncc2c2ccc(-c3cnc(OCCOCCOCCOCCOCCOc4ccc5c(c4)C(=O)N(C4CCC(=O)NC4=O)C5=O)c(F)c3)cc21` (centres unmarked) [Compound 139, 2-(2,6-dioxopiperidin-3-yl)-5-((14-((3-fluoro-5-(5-methyl-5H-pyrido[4,3-b]indol-7-yl)pyridin-2-yl)oxy)-3,6,9,12-tetraoxatetradecyl)oxy)isoindoline-1,3-dione], for which the “Degradation activity* (highest amount of degradation observed at any dosage; tau protein remaining)” value is “B (≤80% and >50% tau protein remaining after 72 hours of incubation with the test compound)”.

For `Cn1c2ccncc2c2ccc(-c3ccc(O[C@H]4C[C@H](OCCOCCOCCOCCOc5ccc6c(c5)C(=O)N(C5CCC(=O)NC5=O)C6=O)C4)nc3)cc21` (some centres unmarked) [Compound 70, 2-(2,6-dioxopiperidin-3-yl)-5-(2-(2-(2-(2-((1r,3r)-3-((5-(5-methyl-5H-pyrido[4,3-b]indol-7-yl)pyridin-2-yl)oxy)cyclobutoxy)ethoxy)ethoxy)ethoxy)ethoxy)isoindoline-1,3-dione], the “Degradation activity* (highest amount of degradation observed at any dosage; tau protein remaining)” value is reported as “A (≤50% tau protein remaining after 72 hours of incubation with the test compound)”.

Consider `O=C1CCC(N2C(=O)c3ccc(N4CCN(CCCc5ccc(O[C@H]6C[C@H](Oc7ccc(-c8ccc9c(c8)[nH]c8ccncc89)cn7)C6)cn5)CC4)cc3C2=O)C(=O)N1` (some centres unmarked) [Compound 64, 5-(4-(3-(5-((1r,3r)-3-((5-(5H-pyrido[4,3-b]indol-7-yl)pyridin-2-yl)oxy)cyclobutoxy)pyridin-2-yl)propyl)piperazin-1-yl)-2-(2,6-dioxopiperidin-3-yl)isoindoline-1,3-dione], for which the “Degradation activity* (highest amount of degradation observed at any dosage; tau protein remaining)” value is recorded as “C (>80% tau protein remaining after 72 hours of incubation with the test compound)”.

For `Cn1c2ccncc2c2ccc(-c3ccc(O[C@H]4C[C@H](Oc5ccc(CCCOC6CN(c7ccc8c(c7)C(=O)N(C7CCC(=O)NC7=O)C8=O)C6)nc5)C4)nc3)cc21` (some centres unmarked) [Compound 156, 2-(2,6-dioxopiperidin-3-yl)-5-(3-(3-(5-((1r,3r)-3-((5-(5-methyl-5H-pyrido[4,3-b]indol-7-yl)pyridin-2-yl)oxy)cyclobutoxy)pyridin-2-yl)propoxy)azetidin-1-yl)isoindoline-1,3-dione], the “Degradation activity* (highest amount of degradation observed at any dosage; tau protein remaining)” value is listed as “C (>80% tau protein remaining after 72 hours of incubation with the test compound)”.

Turning to `Cn1c2ccncc2c2ccc(-c3ccc(C#CCOCCOCCOCCOCCOc4ccc5c(c4)C(=O)N(C4CCC(=O)NC4=O)C5=O)nc3)cc21` (centres unmarked) [Compound 71, 2-(2,6-dioxopiperidin-3-yl)-5-((15-(5-(5-methyl-5H-pyrido[4,3-b]indol-7-yl)pyridin-2-yl)-3,6,9,12-tetraoxapentadec-14-yn-1-yl)oxy)isoindoline-1,3-dione], the “Degradation activity* (highest amount of degradation observed at any dosage; tau protein remaining)” value was “A (≤50% tau protein remaining after 72 hours of incubation with the test compound)”.

On to `Cn1c2ccncc2c2ccc(-c3ccc(OCCCCCOCCCCCCC4CN(c5ccc6c(c5)C(=O)N(C5CCC(=O)NC5=O)C6=O)C4)nc3)cc21` (centres unmarked) [Compound 133, 2-(2,6-dioxopiperidin-3-yl)-5-(3-(6-((5-((5-(5-methyl-5H-pyrido[4,3-b]indol-7-yl)pyridin-2-yl)oxy)pentyl)oxy)hexyl)azetidin-1-yl)isoindoline-1,3-dione], for which the “Degradation activity* (highest amount of degradation observed at any dosage; tau protein remaining)” value was “A (≤50% tau protein remaining after 72 hours of incubation with the test compound)”.

Staying with this assay, now noted: SK-N-SH cells; 72 hours of incubation; tested at 1000 nM, 300 nM and 100 nM.
As to `O=C1CCC(N2C(=O)c3cccc(NCCOCCOCCOCC(=O)N4CCN(c5ccn6c(n5)nc5ccccc56)CC4)c3C2=O)C(=O)N1` (centres unmarked) [Compound 41, 4-((2-(2-(2-(2-(4-(benzo[4,5]imidazo[1,2-a]pyrimidin-2-yl)piperazin-1-yl)-2-oxoethoxy)ethoxy)ethoxy)ethyl)amino)-2-(2,6-dioxopiperidin-3-yl)isoindoline-1,3-dione], the “Activity* (highest amount of degradation observed at any dosage, as tau protein remaining)” value is “C (>80% tau protein remaining after 72 hours of incubation with the test compound)”.

Take `Cc1ncsc1-c1ccc([C@H](C)NC(=O)[C@@H]2C[C@@H](O)CN2C(=O)[C@@H](NC(=O)COCCOCCOCCN2CCN(c3ccn4c(n3)nc3ccccc34)CC2)C(C)(C)C)cc1` [Compound 15, (2S,4R)-1-((S)-14-(4-(benzo[4,5]imidazo[1,2-a]pyrimidin-2-yl)piperazin-1-yl)-2-(tert-butyl)-4-oxo-6,9,12-trioxa-3-azatetradecanoyl)-4-hydroxy-N—((S)-1-(4-(4-methylthiazol-5-yl)phenyl)ethyl)pyrrolidine-2-carboxamide]: the “Activity* (highest amount of degradation observed at any dosage, as tau protein remaining)” value is “C (>80% tau protein remaining after 72 hours of incubation with the test compound)”.

As for `O=C1CCC(N2C(=O)c3cccc(NCCOCCOCCOCCN4CCN(c5ccn6c(n5)nc5ccccc56)CC4)c3C2=O)C(=O)N1` (centres unmarked) [Compound 25, 4-((2-(2-(2-(2-(4-(benzo[4,5]imidazo[1,2-a]pyrimidin-2-yl)piperazin-1-yl)ethoxy)ethoxy)ethoxy)ethyl)amino)-2-(2,6-dioxopiperidin-3-yl)isoindoline-1,3-dione], the “Activity* (highest amount of degradation observed at any dosage, as tau protein remaining)” value was “C (>80% tau protein remaining after 72 hours of incubation with the test compound)”.

As for `Cc1ncsc1-c1ccc(CNC(=O)[C@@H]2C[C@@H](O)CN2C(=O)[C@@H](NC(=O)COCCOCCOc2ccc(-c3ccc4c(c3)[nH]c3ccncc34)cn2)C(C)(C)C)cc1` [Compound 5, (2S,4R)-1-((S)-2-(2-(2-(2-(5-(5H-pyrido[4,3-b]indol-7-yl)pyridin-2-yloxy)ethoxy)ethoxy)acetamido)-3,3-dimethylbutanoyl)-4-hydroxy-N-(4-(4-methylthiazol-5-yl)benzyl)pyrrolidine-2-carboxamide], the “Activity* (highest amount of degradation observed at any dosage, as tau protein remaining)” value is “C (>80% tau protein remaining after 72 hours of incubation with the test compound)”.

With `Cc1ncsc1-c1ccc(CNC(=O)[C@@H]2C[C@@H](O)CN2C(=O)[C@@H](NC(=O)COCCCCCOc2ccc3nc(-c4ccc(N(C)C)cc4)ccc3c2)C(C)(C)C)cc1` [Compound 37, (2S,4R)-1-((S)-2-(2-(5-(2-(4-(dimethylamino)phenyl)quinolin-6-yloxy)pentyloxy)acetamido)-3,3-dimethylbutanoyl)-4-hydroxy-N-(4-(4-methylthiazol-5-yl)benzyl)pyrrolidine-2-carboxamide], the “Activity* (highest amount of degradation observed at any dosage, as tau protein remaining)” value was “C (>80% tau protein remaining after 72 hours of incubation with the test compound)”.
